The values that follow come from ChEMBL document CHEMBL1275562, “Incidence and characteristics of vancomycin nonsusceptible strains of methicillin-resistant Staphylococcus aureus at Hershey Medical Center” (2008).

Common to all, as to assay type: functional
Test [1] concerns Staphylococcus aureus. Kind of test: Antimicrobial activity against vancomycin-intermediate Staphylococcus aureus SA770 after 48 hrs by macro Etest method. The settings on record: SA770, 48 h.
For test [2], the system named is Staphylococcus aureus. Briefly: Antimicrobial activity against vancomycin-intermediate Staphylococcus aureus SA1287 after 48 hrs by macro Etest method. The note with it: SA1287, 48 h.
In test [3] the test system is Staphylococcus aureus. Kind of test: Antimicrobial activity against vancomycin-intermediate Staphylococcus aureus SA1984 after 48 hrs by macro Etest method. The settings on record: SA1984, 48 h.
In test [4] the test system is Staphylococcus aureus. Briefly: Antimicrobial activity against heterogeneous vancomycin-intermediate Staphylococcus aureus SA618 after 48 hrs by macro Etest method. The settings on record: SA618, 48 h.
Test [5] relates to Staphylococcus aureus. Kind of test: Antimicrobial activity against heterogeneous vancomycin-intermediate Staphylococcus aureus SA873 after 48 hrs by macro Etest method. The settings on record: SA873, 48 h.
In test [6] the test system is Staphylococcus aureus. Briefly: Antimicrobial activity against vancomycin-susceptible Staphylococcus aureus SA662 after 48 hrs by macro Etest method. The note with it: SA662, 48 h.
Test [7] deals with Staphylococcus aureus. Briefly: Antimicrobial activity against vancomycin-susceptible Staphylococcus aureus SA2089 after 48 hrs by macro Etest method. The settings on record: SA2089, 48 h.

Converted amounts (≈) assume the structure as drawn.

Regarding `CC(=O)N[C@@H]1[C@H](Oc2c3cc4cc2Oc2ccc(cc2Cl)[C@@H](O[C@@H]2O[C@@H](CO)[C@@H](O)[C@H](O)[C@@H]2NC(C)=O)[C@@H]2NC(=O)[C@H](NC(=O)[C@@H]4NC(=O)[C@H]4NC(=O)[C@@H](Cc5ccc(c(Cl)c5)O3)NC(=O)[C@H](N)c3ccc(O)c(c3)Oc3cc(O)cc4c3)c3ccc(O)c(c3)-c3c(O[C@H]4O[C@H](CO)[C@@H](O)[C@@H](O)[C@@H]4O)cc(O)cc3[C@@H](C(=O)O)NC2=O)O[C@@H](CO)[C@@H](O)[C@@H]1O`, the MIC (in general, the least concentration at which growth counts as inhibited) was determined as 24 µg/mL (≈ 13.6 µM) in test [1]; 8 µg/mL (≈ 4.53 µM) in test [2]; 8 µg/mL (≈ 4.53 µM) in test [3]; 24 µg/mL (≈ 13.6 µM) in test [4]; 12 µg/mL (≈ 6.79 µM) in test [5]; 12 µg/mL (≈ 6.79 µM) in test [6]. The molecule further registered an MIC in test [7] of 12 µg/mL (≈ 6.79 µM).
Take `CN[C@H](CC(C)C)C(=O)N[C@H]1C(=O)N[C@@H](CC(N)=O)C(=O)N[C@H]2C(=O)N[C@H]3C(=O)N[C@H](C(=O)N[C@H](C(=O)O)c4cc(O)cc(O)c4-c4cc3ccc4O)[C@H](O)c3ccc(c(Cl)c3)Oc3cc2cc(c3O[C@@H]2O[C@H](CO)[C@@H](O)[C@H](O)[C@H]2O[C@H]2C[C@](C)(N)[C@H](O)[C@H](C)O2)Oc2ccc(cc2Cl)[C@H]1O` [VANCOMYCIN]: the minimal inhibitory concentration (MIC) came out at 6 µg/mL (≈ 4.14 µM) in test [1]; 6 µg/mL (≈ 4.14 µM) in test [3]; 3 µg/mL (≈ 2.07 µM) in test [4]; 3 µg/mL (≈ 2.07 µM) in test [5]; 3 µg/mL (≈ 2.07 µM) in test [7].
